Experimental data as given in patent US12509424B2, “Compound and composition as PDGF receptor kinase inhibitor” (NIPPON SHINYAKU CO., LTD., priority 2019, dated 2025).

Assays:
[1] = tested on: pulmonary arterial smooth muscle cells; experiment: Suppression of proliferation of pulmonary arterial smooth muscle cells (PDGF-BB stimulation, BrdU); assay type: cell-based; details: PASMC, 24 h; healthy human derived pulmonary arterial smooth muscle cells; human PDGF-BB 10 ng/mL stimulation; BrdU uptake after 1 day; test substance final concentration 3 to 10,000 nM; read-out: Human normal PASMC proliferation suppression (PDGF stimulation_IC50)
Description: (§1) 1. Preparation of Test Substance
Furthermore, it was diluted by 50 times with distilled water.
2. Measurement of Suppression Action Against Proliferation of Pulmonary Arterial Smooth Muscle Cells
The day after healthy human derived pulmonary arterial smooth muscle cells were seeded onto a 96 well plate using a smooth muscle cell proliferation medium, the proliferation medium was replaced with a 0.1% FBS medium, and the cells were cultured for an additional day. A test substance solution was diluted by 10 times with a medium containing BrdU and human PDGF-BB (final concentration of 10 ng/mL, Sigma-Aldrich) and added to cells in equal amounts so as to reach a final concentration of 3 to 10,000 nM. Also, to the human PDGF-BB negative control, BrdU and 0.1% DMSO solution were added. After culturing for 1 day, the amount of BrdU taken up by the proliferating cells was measured using an anti-BrdU antibody.
(§2) 3. Analysis of Measurement Results

PDGFR-β = PDGFR-β (Homo sapiens (Human), UniProt P09619); experiment: PDGFR-β tyrosine kinase inhibitory action (HTRF KinEASE-TK); assay type: biochemical; details: PDGFR-β enzyme 1 ng/μL, 30° C. for 30 minutes; read-out: PDGF-β IC50
Chain of PDGFR-β (P09619 33-1106): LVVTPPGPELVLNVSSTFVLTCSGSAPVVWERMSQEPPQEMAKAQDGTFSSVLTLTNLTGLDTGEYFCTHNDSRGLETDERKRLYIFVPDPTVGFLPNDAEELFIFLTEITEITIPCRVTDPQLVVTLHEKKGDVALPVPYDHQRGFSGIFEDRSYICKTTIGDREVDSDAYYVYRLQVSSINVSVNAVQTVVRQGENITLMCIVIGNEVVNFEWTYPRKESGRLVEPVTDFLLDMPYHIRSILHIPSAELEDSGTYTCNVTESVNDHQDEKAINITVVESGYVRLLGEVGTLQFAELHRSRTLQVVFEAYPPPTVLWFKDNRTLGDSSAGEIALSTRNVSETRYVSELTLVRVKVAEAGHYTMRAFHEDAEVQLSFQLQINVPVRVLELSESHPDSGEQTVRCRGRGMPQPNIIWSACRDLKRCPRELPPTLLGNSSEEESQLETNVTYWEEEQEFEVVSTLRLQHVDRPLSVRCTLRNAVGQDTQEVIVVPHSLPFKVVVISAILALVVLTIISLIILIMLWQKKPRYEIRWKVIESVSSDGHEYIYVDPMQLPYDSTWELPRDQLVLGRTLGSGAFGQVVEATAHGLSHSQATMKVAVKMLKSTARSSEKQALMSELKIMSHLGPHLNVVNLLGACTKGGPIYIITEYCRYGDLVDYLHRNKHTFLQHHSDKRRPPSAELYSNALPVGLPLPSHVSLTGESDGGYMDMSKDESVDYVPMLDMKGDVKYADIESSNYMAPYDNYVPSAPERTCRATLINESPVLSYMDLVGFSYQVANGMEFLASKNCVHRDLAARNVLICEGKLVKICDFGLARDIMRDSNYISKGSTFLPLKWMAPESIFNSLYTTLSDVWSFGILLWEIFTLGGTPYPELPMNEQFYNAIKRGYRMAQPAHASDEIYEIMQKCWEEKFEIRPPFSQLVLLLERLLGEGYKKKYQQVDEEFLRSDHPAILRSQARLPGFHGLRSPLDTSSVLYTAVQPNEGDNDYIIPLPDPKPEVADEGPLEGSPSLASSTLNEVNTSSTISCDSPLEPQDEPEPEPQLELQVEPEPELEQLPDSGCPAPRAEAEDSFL
Description: as §1
This DMSO solution was diluted by 8 times with an assay buffer 1 (50 mM HEPES (pH 7.0), 0.02% NaN3, 0.01% Bovine Serum Albumin, 0.1 mM orthovanadate, 1 mM Dithiothreitol, 5 mM MgCl2, and 1 mM MnCl2) and further diluted by 5 times with an assay buffer 2 (50 mM HEPES (pH 7.0), 0.02% NaN3, 0.01% Bovine Serum Albumin, 0.1 mM orthovanadate, 1 mM Dithiothreitol, 5 mM MgCl2, 1 mM MnCl2, and 40 nM Supplemented Enzymatic Buffer (cisbio)).
2. Measurement of PDGFR-β Tyrosine Kinase Inhibitory Action
For the measurement, the HTRF KinEASE-TK kit from Cisbio Bioassays SAS was used. To a 384 well plate, the test substance solution was added at 4 μL each, then 2 μL of a PDGFR-β enzyme solution (final concentration of 1 ng/μL, Carna Biosciences, Inc.) and 4 μL of a substrate solution obtained by adding 0.6 μM ATP to TK substrate-3-biotin (cisbio) were added, and the solution was allowed to react at 30° C. for 30 minutes at a final concentration of the test substance being 0.01 to 10,000 nM.
Thereafter, 10 μL of a detection solution (cisbio) was added to each well and allowed to react at 30° C. for 1 hour. The fluorescence intensity was measured with a microplate reader (Spectra Max M5, Molecular device).
as §2

SMILES	IC50 [1] [nM]	IC50 (PDGFR-β) [nM]
COc1cncc(C(=O)Nc2cc(C(=O)N[C@H]3CCCC[C@@H]3O)ccc2C)c1 [Example 49, N-(5-{[(1S,2S)-2-hydroxycyclohexyl]carbamoyl}-2-methylphenyl)-5-methoxypyridine-3-carboxamide]	250	120
CCOc1cncc(C(=O)Nc2cc(C(=O)N[C@H]3CCCC[C@@H]3O)ccc2C)c1 [Example 50, 5-ethoxy-N-(5-{[(1S,2S)-2-hydroxycyclohexyl]carbamoyl}-2-methylphenyl)pyridine-3-carboxamide]	270	61
Cc1ccc(C(=O)N[C@H]2CCCC[C@@H]2O)cc1NC(=O)c1cncc(Oc2ccccn2)c1 [Example 51, N-(5-{[(1S,2S)-2-hydroxycyclohexyl]carbamoyl}-2-methylphenyl)-5-[(pyridin-2-yl)oxy]pyridine-3-carboxamide]	180	61
Cc1ccc(C(=O)N[C@H]2CCCC[C@@H]2O)cc1NC(=O)c1cncc(Oc2ncccn2)c1 [Example 52, N-(5-{[(1S,2S)-2-hydroxycyclohexyl]carbamoyl}-2-methylphenyl)-5-[(pyrimidin-2-yl)oxy]pyridine-3-carboxamide]	420	77
Cc1ccc(C(=O)N[C@H]2CCCC[C@@H]2O)cc1NC(=O)c1cncc(OCC2(C)CC2)c1 [Example 53, N-(5-{[(1S,2S)-2-hydroxycyclohexyl]carbamoyl}-2-methylphenyl)-5-[(1-methylcyclopropyl)methoxy]pyridine-3-carboxamide]	71	12
Cc1ccc(C(=O)N[C@H]2CCCC[C@@H]2O)cc1NC(=O)c1cncc(OCC2CC(F)(F)C2)c1 [Example 54, 5-[(3,3-difluorocyclobutyl)methoxy]-N-(5-{[(1S,2S)-2-hydroxycyclohexyl]carbamoyl}-2-methylphenyl)pyridine-3-carboxamide]	340	40
O=C(N[C@H]1CCCC[C@@H]1O)c1ccc(Cl)c(NC(=O)c2cnc(CC3CC3)s2)c1 [Example 55, N-(2-chloro-5-{[(1S,2S)-2-hydroxycyclohexyl]carbamoyl}phenyl)-2-(cyclopropylmethyl)-1,3-thiazole-5-carboxamide]	69	83
O=C(Nc1cc(C(=O)N[C@H]2CCCC[C@@H]2O)ccc1F)c1cncc(OCC2CC2)c1 [Example 56, 5-(cyclopropylmethoxy)-N-(2-fluoro-5-{[(1S,2S)-2-hydroxycyclohexyl]carbamoyl}phenyl)pyridine-3-carboxamide]	240	120
Cc1ccc(C(=O)N[C@H]2CCCC[C@@H]2O)cc1C#Cc1cncc(NCC2CC2)n1 [Example 72, 3-({6-[(cyclopropylmethyl)amino]pyrazin-2-yl}ethynyl)-N-[(1S,2S)-2-hydroxycyclohexyl]-4-methylbenzamide]	70	10
CC(=O)Nc1ccc(CNc2cc(C(=O)N[C@H]3CCCC[C@@H]3O)ccc2C)cn1 [Example 116, 3-{[(6-acetamidopyridin-3-yl)methyl]amino}-N-[(1S,2S)-2-hydroxycyclohexyl]-4-methylbenzamide]	120	–
Cc1ccc(C(=O)N[C@H]2CCCC[C@@H]2O)cc1OC(C)c1cncc(-c2ccccc2)c1 (stereo partly drawn) [Example 172, N-[(1S,2S)-2-hydroxycyclohexyl]-4-methyl-3-[1-(5-phenylpyridin-3-yl)ethoxy]benzamide]	–	190
Cc1ccc(C(=O)N[C@H]2CCCC[C@@H]2O)cc1CN(C)c1cncc(-c2ccccc2)c1 [Example 175, N-[(1S,2S)-2-hydroxycyclohexyl]-4-methyl-3-{[methyl(5-phenylpyridin-3-yl)amino]methyl}benzamide]	–	24
CCN(Cc1cc(C(=O)N[C@H]2CCCC[C@@H]2O)ccc1C)c1cncc(-c2ccccc2)c1 [Example 176, 3-{[ethyl(5-phenylpyridin-3-yl)amino]methyl}-N-[(1S,2S)-2-hydroxycyclohexyl]-4-methylbenzamide]	–	50
